The source of these data is patent publication US20220195461A1, “METHODS AND COMPOSITIONS FOR TRANSGENE EXPRESSION” (priority 2019, published 2022).

In the series the test system is CF (HBE and HTE, dF508/dF508, Passage 0) cells. As to the kind of experiment: LDH activity (toxicity) of AV.TL65 plus proteasome inhibitor versus AAV alone. Type of series: cell-based, human. Particulars: for LDH (toxicity) activity compared to AAV without a proteasome inhibitor: augmenter + AV.TL65-gLuc-mCherry, 4 days after infection (FIG. 1B); for toxicity of the enhancement: augmenter combined with AV.TL65Luciferase-mCherry, ALI HBE cultures; for LDH relative to baseline: passage 0 (P0) cells. The text has this: FIGS. 1A and 1B are a series of graphs showing the ratio of luciferase activity in cells treated with AV.TL65+proteasome inhibitor (PI) versus AAV alone (FIG. 1A) and the ratio of LDH activity in cells treated with AV.TL65+PI versus AAV alone (FIG. 1B). […] Relative Luminescence Units in CF HBE treated with AV.TL65 with PI exceeded 200-fold of AV.TL65 without PI. Toxicity of AV.TL65 with PI as measured by LDH activity was mostly below 150% of AV.TL65 without PI.
We have generated a novel AAV vector featuring a capsid that is highly efficient at transducing human airway epithelium in the apical membrane. Specifically, we have used AV.TL65-SP183-CFTRΔR to deliver an R-domain-partially-deleted CFTR minigene and AV.TL65Luciferase-mCherry, a dual reporter vector, to express luciferase and fluorescent mCherry protein. The AV.TL65-SP183-CFTRΔR rAAV vector included a polynucleotide comprising: a 5′ AAV ITR comprising the sequence of SEQ ID NO:15, an F5 enhancer comprising the sequence of SEQ ID NO:14 (which may include a 5′ EcoRI site and a 3′ XhoI site, as in SEQ ID NO:1), a tg83 promoter comprising the sequence of SEQ ID NO:2, a 5′ UTR comprising the sequence of SEQ ID NO:3, a hCFTRΔR minigene comprising the sequence of SEQ ID NO:4, a 3′ UTR comprising the sequence of SEQ ID NO:5, a s-pA comprising the sequence of SEQ ID NO:6, and a 3′ AAV ITR comprising the sequence of SEQ ID NO:16. For example, the packaged polynucleotide may include the sequence of SEQ ID NO:17. […] We have shown that combining AV.TL65Luciferase-mCherry with doxorubicin or idarubicin provides non-toxic enhancement of luciferase expression by more than 600-fold of air-liquid interface (ALI) human bronchial epithelial (HBE) cultures from 5 separate CF (homozygous dF508/dF508 CFTR) and non-CF donors compared to AV.TL65Luciferase-mCherry without proteasome inhibitor. In another experiment, doxorubicin and idarubicin+AV.TL65-gLuc-mCherry improved transduction over AAV without a proteasome inhibitor by over 200-fold (FIG. 1A, dashed line). Doxorubicin added to AV.TL65-gLuc-mCherry but not idarubicin had less than 150% LDH (toxicity) activity compared to AAV without a proteasome inhibitor (FIG. 1B; dashed line). Transduction efficiency gains in passage 0 (PO) cells were well above 200-fold better with doxorubicin and idarubicin with LDH <1.5× baseline for doxorubicin and >1.5× baseline for idarubicin.

Take `CC(=O)[C@]1(O)Cc2c(O)c3c(c(O)c2[C@@H](O[C@H]2C[C@H](N)[C@H](O)[C@H](C)O2)C1)C(=O)c1ccccc1C3=O` [idarubicin]: the “LDH (toxicity) activity compared to AAV without a proteasome inhibitor” value was at least 150%, the “toxicity of the enhancement” value is “non-toxic” and the “LDH relative to baseline” value is given as above 1.5 × baseline.
In the same order, the values of `COc1cccc2c1C(=O)c1c(O)c3c(c(O)c1C2=O)C[C@@](O)(C(=O)CO)C[C@@H]3O[C@H]1C[C@H](N)[C@H](O)[C@H](C)O1` [doxorubicin] are “less than 150%”, “non-toxic” and below 1.5 × baseline.
